Here are results for eight compounds from PMC6753678, “Fueling Open Innovation for Malaria Transmission-Blocking Drugs: Hundreds of Molecules Targeting Early Parasite Mosquito Stages” (Frontiers in Microbiology, 2019).

For data set [1], the system named is 3D7-strain P. falciparum asexual parasites. As to the kind of experiment: P. falciparum asexual growth inhibition assay (Pf GIA). Format: cell-based, Plasmodium falciparum. The settings on record: dose response confirmation; read-out: Pf asexual growth inhibition assays IC50. The procedure, abridged:
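LDH readout: absorbance at 650 nm after 10 min at room temperature with lactate/APAD/NBT/diaphorase mix on thawed plates. Cultures (0.25% parasitemia, 2% hematocrit) were treated 72 h at 37°C in low-oxygen gas. Inhibition was normalised to 50 μM chloroquine and DMSO; n=3 biological replicates.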

A further data set concerns HepG2 cells. As to the kind of experiment: HepG2 cytotoxicity assay. The note with it: for IC50: read-out: HepG2 cytotoxicity assay IC50, dose response confirmation; for Pb ODA (this manuscript) HepG2 cytoxicity: HepG2 cytotoxicity listed with the Pb ODA data set (this manuscript). In a few lines:
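Cells are plated at 2,500 per well on compound-treated plates in MEM containing 10% fetal bovine serum and 1% NEAA, then incubated 48 h at 37°C.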

For data set [2], the system named is P. berghei ookinete development. The settings on record: for % inhibition, Replicate A / % inhibition, Replicate B: primary screen at 1 μM.
Setting [3] is: unified HepG2 value across the three screens.
The mark [4] stands for this setting: read-out: Pb ODA IC50, this manuscript.
The mark [5] stands for this setting: read-out: Pb Ookinete development assay IC50, dose response confirmation.
Where [6] appears, read: HepG2 values of the three screens unified.
[7] abbreviates: read-out: Pb ODA (this manuscript) IC50, P. berghei ookinete development assay, this manuscript.

Read-outs that look alike come from different tables or passages of the source.

Turning to `CCCCN(C)CC#Cc1ccc(-c2ccc3[nH]c(C)c(Br)c(=O)c3c2)cn1` [TCMDC-136285], the IC50 (as a rule, the concentration needed to halve the response being measured) in data set [1] is 1060 nM; in the data set on HepG2 cells, 100000 nM; in data set [2] (setting [4]), 1020 nM; in data set [2] (setting [5]) it was 1020 nM. Also, in the data set with HepG2 cells (setting [3]), the “Unified cytotox” value is 100.00 µM. Besides, in data set [2] (1: YES, 0: NO), the “Is compound selective in assay? Pb ODA active?” value (“Is compound selective” below) is 1 (1: YES). Moreover, the “% inhibition, Replicate A” value in data set [2] was 73.89%. For the same compound, the “% inhibition, Replicate B” value in data set [2] is 66.49%.

Consider `Cc1[nH]c(C)c(-c2ccc(-c3cccc(OC(F)(F)F)c3)nc2)c(=O)c1Cl` [TCMDC-136286], for which the half-maximal inhibitory concentration (IC50) in data set [1] is 258 nM; in the data set with HepG2 cells it was 8510 nM; in data set [2] (setting [4]) it was 300 nM; in data set [2] (setting [5]) it was 303 nM. In the data set with HepG2 cells, the “HepG2 cytoxicity (Pb ODA, this manuscript)” value was 8.51 µM. This compound also had a Unified cytotox in the data set on HepG2 cells (setting [6]) of 8.51 µM. For the same compound, in data set [2] (1: YES, 0: NO), the “Is compound selective” value is recorded as 1 (1: YES). Besides, in data set [2], the “% inhibition, Replicate A” value was 104.87%. Besides, the “% inhibition, Replicate B” value in data set [2] came to 108.75%.

With `Cc1[nH]c(C)c(-c2ccc(-c3cccc(Cl)c3)nc2)c(=O)c1Cl` [TCMDC-136300], the concentration for half-maximal inhibition (IC50) in data set [1] is 203 nM; with HepG2 cells, 56200 nM; in data set [2] (setting [4]) it was 680 nM; in data set [2] (setting [5]) it was 675 nM. Further, the “HepG2 cytoxicity (Pb ODA, this manuscript)” value in the data set on HepG2 cells was 56.23 µM. The Unified cytotox in the data set with HepG2 cells (setting [6]) was 56.23 µM. In addition, in data set [2] (1: YES, 0: NO), the “Is compound selective” value is reported as 1 (1: YES). Besides, the “% inhibition, Replicate A” value in data set [2] turned out to be 90.77%. Also, the “% inhibition, Replicate B” value in data set [2] is listed as 81.67%.

Consider `Cc1[nH]c(C)c(-c2ccc(-c3ccc(Cl)cc3)nc2)c(=O)c1Cl` [TCMDC-136301], for which the IC50 in data set [1] is 193 nM; with HepG2 cells, 100000 nM; in data set [2] (setting [4]), 960 nM; in data set [2] (setting [5]) it was 963 nM. The Unified cytotox in the data set on HepG2 cells (setting [6]) is 100.00 µM. Moreover, the “Is compound selective” value in data set [2] (1: YES, 0: NO) is recorded as 1 (1: YES). In addition, the “% inhibition, Replicate A” value in data set [2] was determined as 94.15%. Also, the “% inhibition, Replicate B” value in data set [2] came to 37.57%.

Regarding `Cc1[nH]c(C)c(-c2ccc(-c3ccccc3Cl)nc2)c(=O)c1Cl` [TCMDC-136303], the IC50 is 248 nM in data set [1], 100000 nM in the data set on HepG2 cells, 230 nM in data set [2] (setting [4]) and 229 nM in data set [2] (setting [5]). The Unified cytotox in the data set with HepG2 cells (setting [6]) is reported as 100.00 µM. In addition, the “Is compound selective” value in data set [2] (1: YES, 0: NO) is 1 (1: YES). Further, in data set [2], the “% inhibition, Replicate A” value is 118.12%. Further, the “% inhibition, Replicate B” value in data set [2] was 98.57%.

Take `COc1ccc2ncc(F)c(NC(=O)C3CCC(NCc4cc5c(F)cccc5[nH]4)CC3)c2n1.Cl` (stereo not drawn) [TCMDC-136354]: the IC50 was determined as 475 nM in data set [1], 3630 nM in the data set on HepG2 cells, 250 nM in data set [2] (setting [7]) and 252 nM in data set [2] (setting [5]). For the same compound, the “Pb ODA (this manuscript) HepG2 cytoxicity” value in the data set on HepG2 cells stood at 3.63 µM. Moreover, the “Is compound selective” value in data set [2] was 1 (key: 1: YES; 0: NO). Also, the “% inhibition, Replicate A” value in data set [2] came to 86.49%. In data set [2], the “% inhibition, Replicate B” value is listed as 82.69%.

For the compound `COc1ccc2ncc(F)c(NC(=O)C3CCC(NCc4cc5cc(F)cc(F)c5[nH]4)CC3)c2n1.Cl` (stereo not drawn) [TCMDC-136455], the IC50 stood at 2430 nM in data set [1], 15500 nM in the data set on HepG2 cells, 1020 nM in data set [2] (setting [7]) and 1020 nM in data set [2] (setting [5]). The “Pb ODA (this manuscript) HepG2 cytoxicity” value in the data set with HepG2 cells was 15.49 µM. For the same compound, the “Is compound selective” value in data set [2] is listed as 1 (key: 1: YES; 0: NO). The “% inhibition, Replicate A” value in data set [2] is recorded as 109.55%. Also, the “% inhibition, Replicate B” value in data set [2] turned out to be 94.56%.

For the compound `CN1CCN(CC(=O)Nc2ccc(-c3ccc(-c4nc5ccccc5[nH]4)cc3)cc2)CC1` [TCMDC-136979], the IC50 amounted to 1110 nM in data set [1], 21600 nM with HepG2 cells, 4190 nM in data set [2] (setting [4]) and 4190 nM in data set [2] (setting [5]). The “Unified cytotox” value with HepG2 cells (setting [3]) is 21.63 µM. Besides, the “Is compound selective” value in data set [2] (1: YES, 0: NO) is 0 (0: NO). Moreover, in data set [2], the “% inhibition, Replicate A” value was determined as 58.34%. For the same compound, the “% inhibition, Replicate B” value in data set [2] came to 20.87%.
